From ChEMBL document CHEMBL1149865, “Pyridinium alkaloid-coupled secoiridoids from the flower buds of Lonicera japonica” (2008)

assay: Antiinflammatory activity in rat polymorphonuclear leukocytes assessed as inhibition of platelet activating factor-induced release of glucuronidase at 10 uM after 15 mins; type: functional; settings: 0.25 h

SMILES | inhibition at 10 µM
C=C[C@H]1[C@H](O[C@@H]2O[C@H](CO)[C@@H](O)[C@H](O)[C@H]2O)OC=C(C(=O)O)[C@H]1/C=C/c1cc(C(=O)[O-])c[n+](CCO)c1 [LONIJAPOSIDE C] | 69.5%
C=C[C@H]1[C@H](O[C@@H]2O[C@H](CO)[C@@H](O)[C@H](O)[C@H]2O)OC=C(C(=O)OC)[C@H]1/C=C/c1cc(C(=O)[O-])c[n+](CCO)c1 [LONIJAPOSIDE B] | 35.8%
C=C[C@H]1[C@H](O[C@@H]2O[C@H](CO)[C@@H](O)[C@H](O)[C@H]2O)OC=C(C(=O)OC)[C@H]1/C=C/c1cc(C(=O)[O-])c[n+](CCCC(=O)O)c1 [LONIJAPOSIDE A] | 11%
